Assay results reported in patent publication US11072567B2, “Urea-based blend composition and method for the manufacture thereof” (YARA INTERNATIONAL ASA, priority 2015, dated 2021).

Assays:
[1] = Stability of nBTPT on urea blended with DAP, bagged storage at 20° C., HPLC analysis of nBTPT content; assay type: physicochemical; details: 2500 ppm added; 900 ppm nBTPT as Agrotain Ultra on urea blended with DAP 1:1; 14 days bagged storage at 20° C.
Protocol: (§1) For lab scale experiments, nBTPT was applied onto urea by adding 1.2 kg of urea-based compound to a lab scale drum. In a next step, the nBTPT material was slowly added. A residence time of 10 minutes was applied and the rotating speed of the drum was consequently the same in each experiment. In case a moisture repellent coating was added, a nebulizer was used and depending on the order of addition, the moisture repellent coating was added before or after addition of the nBTPT material. Before use, the moisture repellent coating was preheated to 80° C. Larger scale experiments with amounts up to 40 kg of fertilizer material were performed in a concrete mixer.
(§2) In a next step, one or more reactive alkaline or alkaline-forming inorganic or organic compounds that is able to interact with the one or more components selected from the group of nitrates, phosphates, sulphates and chlorides was added;
(§3) In a next step, a particulate material, comprising one or more components selected from the group of nitrates, phosphates, sulphates and chlorides was added;
(§4) All the components were mixed thoroughly.
Optionally, a coating to one or more of the particulate components that is able to increase at least the anti-caking and/or water repellent properties of said urea-based blend composition was added. Importantly, all the steps can be interchanged or the steps can be performed simultaneously.
(§5) The samples were stored under several conditions, dependent on the type of samples: • 20° C. closed plastic container with head space (Climate chamber, 80% relative humidity) • Bagged at room temperature (20-25° C.) or in nissenhut (an unconditioned bulk hall) • Open to air in nissenhut • Cylinder test in nissenhut • Open pile in nissenhut
(§6) HPLC analysis of nBTPT is done as described in the procedure CEN 15688-2007.
(§7) In practice, the urea-based compound treated with nBTPT was picked and separated manually from the particulate material, comprising one or more components selected from the group of nitrates, phosphates, sulphates and chlorides, and then subsequently dissolved in water for HPLC analysis.
Coating: Moisture repellent (MR) coating was made according to EP 0768993 A1 (Norsk Hydro ASA) by mixing about 28 weight % of wax, about 68 weight % of oil and about 4 weight % of a resin, applied in an amount of about 0.1-0.5% weight % to the fertilizer. It will be referred herein as NH coating.

[2] = assay type: physicochemical
Description: With regard to the activity of the reactive alkaline or alkaline-forming inorganic or organic compounds, without being bound by theory, it is hypothesised that the reactive alkaline or alkaline-forming inorganic or organic compound neutralises the released phosphoric acid which is formed during decomposition of the urease inhibitor of the type phosphoric triamide in view of the fact that the decomposition of the urease inhibitor of the type phosphoric triamide is acid-catalysed. As such, the decomposition of the urease inhibitor of the type phosphoric triamide is slowed down. Furthermore, the stabilizer has the ability to immobilize the nitrates, phosphates, sulphates and chlorides and/or to convert the nitrates, phosphates, sulphates and chlorides into a form which is less reactive with the urease inhibitor of the type phosphoric triamide. For example, calcium oxide may react with ammonium sulphate in the presence of water, which is always present in small amounts in urea, to form calcium sulphate, which is nearly insoluble in an aqueous environment, such as a soil.

[3] = Stability of nBTPT in/on urea:AS blend, bagged versus open to air storage in nissenhut; assay type: physicochemical; details: 500 ppm nBTPT in/on urea blended with granular AS 1:1; 35 days in nissenhut
Protocol: FIG. 8. Stability of different nBTPT formulations (500 ppm) in and on urea in a blend with granular AS: bagged versus open to air storage-% recovery of nBTPT after 35 days of storage in nissenhut (day/night cycle 16-42° C./27-77% relative humidity). • A=[500 ppm nBTPT powder in urea]+AS 1:1 • B=[500 ppm nBTPT powder on urea]+AS 1:1 • C=[500 ppm nBTPT as Agrotain® Ultra in urea]+AS 1:1 • D=[500 ppm nBTPT as Agrotain® Ultra on urea]+AS 1:1
as §5
(§8) Typically, a day/night cycle is generated in the nissenhut, with temperature fluctuations between 0 to 42° C. and fluctuations of relative humidity between 20 and 90%, which can be compared with real life storage in silos.
as §6, §7

[4] = Stability of nBTPT in/on urea blends, storage open to air in jars in nissenhut, HPLC analysis of nBTPT content; assay type: physicochemical; details: for stability of nBTPT (degradation): 35 days open to air in jars in nissenhut; for effect of addition on the stability of nBTPT: 2650 ppm added, 14 days open to air in jars at nissenhut
Protocol: nBTPT was mixed in urea in the following way: nBTPT was added to urea melt and subsequently this mixture was granulated in a fluidized bed granulator.
as §1, §2, §3, §4, §5, §8, §6, §7

**Q.** With `OCCNCCO` [diethanolamine] as the molecule, how does the “effect of addition on the stability of nBTPT” value (“effect of addition” for short) [1] read?
**A.** Its value is “beneficial effect”.

**Q.** For `CCN(CC)CC` [triethylamine], which “effect of addition” value [1] is on record?
**A.** The value was “beneficial effect”.

**Q.** Which “effect of addition” value [1] does the source give for `[O]=[Zn]` [ZnO, zinc oxide] here?
**A.** Its value is “beneficial effect”.

**Q.** For talc, which “stabilizing effect on nBTPT” value [2] is on record?
**A.** The value was “no stabilizing effect”.

**Q.** For `CCCCNP(N)(N)=S` [nBTPT, N-(n-butyl) thiophosphoric triamide], which “effect of bagged storage versus open to air storage on stability of nBTPT” value [3] is on record?
**A.** Its value is “beneficial effect of bagged storage”.

**Q.** What about the “stability of nBTPT (degradation)” value ([4]; liquid nBTPT formulations in and on urea (500 ppm) blended with granular AS 1:1, 16-42° C./27-77% relative humidity) of the same molecule?
**A.** Its value is “degrades very fast”.

**Q.** And the “stability of nBTPT (degradation)” value ([4]; nBTPT formulations in and on urea (500 ppm) blended with DAP and KCl, triple 19 ratio)?
**A.** Its value is “degrades very dramatically”.

**Q.** And the “stability of nBTPT (degradation)” value ([4]; solid nBTPT in and on urea (500 ppm) blended with DAP 1:1)?
**A.** The value was “degrades very fast”.

**Q.** What about the “stability of nBTPT (degradation)” value ([4]; solid nBTPT in and on urea (500 ppm) blended with KCl 1:1) of the same molecule?
**A.** The value was “degrades very fast”.

**Q.** With `[O]=[Ca]` [CaO, calcium oxide] as the molecule, how does the “effect of addition” value [1] read?
**A.** Its value is “beneficial effect”.

**Q.** And the “effect of addition” value ([4]; 500 ppm nBTPT powder in or on urea blended with DAP and KCl triple 19)?
**A.** Its value is “beneficial effect”.

**Q.** What about the “effect of addition” value ([4]; 500 ppm nBTPT powder in or on urea blended with granular AS 1:1) of the same molecule?
**A.** Its value is “beneficial effect”.

**Q.** For `O=C([O-])[O-].[Ca+2]` [CaCO3, calcium carbonate], which “effect of addition” value [1] is on record?
**A.** The value was “beneficial effect”.

**Q.** With `[O]=[Mg]` [MgO, magnesium oxide] as the molecule, how does the “effect of addition” value [1] read?
**A.** The value was “beneficial effect”.
